Experiment: Tasting of high-purity Pinoquercetin + potassium chloride (KCl)
Assay type: in vivo
Conditions: for bitterness of KCl is reduced by the product, share of responses: 14 responses
Method: The sensory evaluation of the samples was performed twice by a team of seven experienced assessors.

[1] = 10 μM (3.2 ppm) with 1.5% potassium chloride in spring water
[2] = 25 μM (8 ppm) with 1.5% potassium chloride in spring water
[3] = 50 μM (16 ppm) with 1.5% potassium chloride in spring water

## Cc1c(O)cc2oc(-c3ccc(O)c(O)c3)c(O)c(=O)c2c1O [Pinoquercetin]
1 μM (0.3 ppm) with 1.5% potassium chloride in spring water
  bitterness of KCl is reduced by the product, share of responses: product in 64% of responses average
[1]
  dominant flavour: sure dominant flavour: saltiness
  bitterness of KCl is reduced by the product, share of responses: product in 64% of responses average
[2]
  dominant flavour: flavour: saltiness
  bitterness of KCl is reduced by the product, share of responses: product in 64% of responses average
[3]
  dominant flavour: flavour: saltiness
  bitterness of KCl is reduced by the product, share of responses: product in 71% of responses average
